# Reference: patent US7691418B2, “Composition for inhibiting or preventing the formation of a biofilm” (Oystershell NV, priority 2004, dated 2010)
# Tests used:
# [1] = test system: glycosyltransferase (GTF); dextran sucrase of Leuconostoc mesenteroides; assay: GTF enzyme assay: insoluble dextran formation followed by turbidity at 690 nm; type: biochemical; conditions: positive controls: TRIS 2, 10, 100 mM; DJM 10 mM
# S. mutans biofilm = S. mutans biofilm formation on hydroxyl apatite discs in Modified Robbins Devices, SYTO 9 fluorescence; type: cell-based, Streptococcus mutans; conditions: FIG. 12; 5 μg/ml (sub-MIC)
# Source text: A first example illustrates the influence of extracts according to the invention on the development of a S. mutans biofilm. Hereby a model system for the study of biofilm formation on discs was used. The system comprises the irrigation of a growing medium and micro-organisms on discs and to develop the formation of microbial biofilms thereon. The system permits to compare biomasses of biofilms which were and were not exposed to plant extracts according to the invention. Since teeth comprise hydroxyl apatite (HAP), discs comprising HAP (Clarkson Chromatography Products, South Williamsport, Pa., USA) were used for each experiment. […] Before starting biofilm experiments, the minimum inhibitory concentration (MIC value) was determined for each plant extract. […] Quantification of biofilm formation was done by putting the HAP discs in a microtiter plate, followed by staining the discs with a SYTO®9 solution, that stains the DNA of living bacteria as well as of dead bacteria. After an incubation period of approximately 15 minutes the microtiter plate was scanned in an automatic microtiter plate reader (Wallac 1420 Multilabel Counter (Victor^2™; Perkin Elmer Life and Analytical Sciences, Boston, Mass., USA) able to measure absorption as well as fluorescence and luminescence.
absorption of formed dextran with known GTF inhibitors [1],SMILES,average fluorescence values compared with positive control BHIS (S. mutans biofilm)
decrease in absorption,NC(CO)(CO)CO [TRIS],–
–,Cc1cc(O)c2c(c1)C(=O)c1cc(O)cc(O)c1C2=O [emodin],significantly lower that those of the positive control BHIS
decrease in absorption,"OC[C@H]1NC[C@H](O)[C@@H](O)[C@@H]1O [DJM, 1-deoxynojirimycine]",–
